Reference: US20210059963A1, “Beta-blockers for treating and/or preventing pathological scars” (GENEPRED BIOTECHNOLOGIES, priority 2017, published 2021)

Tests used:
Assay type in all cases: in vivo, human
[1] = tested on: patients with keloid scars; assay: Overall evaluation of the effect of the treatment on patient clinical conditions
Text: (§1) During a clinical evaluation and treatment of subjects infected with Schistosoma mansoni in Uganda, the inventors used propranolol to lower portal blood pressure in subjects with severe liver disease (hepatic fibrosis) and splenomegaly. High portal blood pressure causes the development of oesophageal varices and variceal bleedings that are the principal cause of death in S.mansoni-infected subjects. Propranolol is currently used to reduce the risk of variceal bleedings because that drug has blocking effects on beta receptors of the nervous system, thus reducing portal pressure. Five to ten percent of the 5000 fishermen and fisher women of the study had haemorrhagic bleedings from oesophageal varices or were at risk of bleeding. In an attempt to reduce bleedings, propranolol was given to them by the oral route, one 40 mg pill per day. This molecule has little side effects and can be prescribed safely for very long periods excepted to asthmatic subjects and to patients with cardiac problems.
(§2) During the study, one of the patients had mentioned that their keloid scars were not itching any more since they were treated for high portal pressure. This prompted the inventors to check whether this effect had also been noticed by other patients under the same treatment. The data presented here, have been obtained on 30 of these patients, they were collected from 30 out of 60 patients who had received this same treatment because of a high risk of variceal bleedings. The remaining 30 patients were not available, at that time, for evaluation of the propranolol effects.
The proposed answers were: a lot of improvement, much improvement, a little improvement and no improvement. […] Only one answer per patient was accepted. Forty four (44.8%) and twenty seven (27.6%) percent of the patients estimated that the treatment had improved either much or a lot their condition, respectively.

[2] = tested on: patients with keloid scars; assay: Effect of propranolol on pain associated with keloids (patient report)
Text: as §1, §2
(§3) Keloid Grading: Patient keloid scars were classified as low, intermediate or high severity.
(§4) Low severity corresponded to one or two scars on any part of the body, intermediate severity corresponded to various scars (including large cordons) on at least 3 different part of the body. Severe grades keloids combined extended large patches and many long and large scars on different part of the body.
(§5) Statistical analysis was performed using the SPSS software. The effects of the treatment were tested with the nonparametric Wlcoxon test performed on paired data (before and after treatment). P values were calculated for a two sided test.

[3] = tested on: patients with keloid scars; assay: Effect of propranolol on itching associated with keloids (patient report)
Text: as §1, §2, §3, §4, §5

[4] = Global 1 + 2, oral 40 mg per day
[5] = Pain Prior to Propranolol 1, oral 40 mg per day
[6] = Pain Prior to Propranolol 2, oral 40 mg per day
[7] = share of patients with this effect who had Pain Prior to Propranolol 1
[8] = share of patients with this effect who had Pain Prior to Propranolol 2
[9] = Global 1 + 2, 40 mg per day for 2 to 4 days, oral
[10] = Global 1 + 2, 40 mg per day for 2 to 4 days, oral, listed as propranol
[11] = Itching prior to Treatment 1, oral 40 mg per day
[12] = Itching prior to Treatment 2, oral 40 mg per day
[13] = share of patients with this effect who had Itching prior to Treatment 1
[14] = share of patients with this effect who had Itching prior to Treatment 2

Compound: CC(C)NCC(O)COc1cccc2ccccc12 (centres unmarked) [propranolol]
- patients estimating that the treatment had improved a lot their condition ([1]; answer: a lot of improvement, FIG. 3): 27.6%
- patients estimating that the treatment had improved much their condition ([1]; answer: much improvement, FIG. 3): 44.8%
- patients who felt that the treatment had clearly improved their clinical status ([1]; total of much and a lot of improvement): 72.4%
- study subjects reporting no effects of the treatment on keloid associated pain [2]: 20%
- study subjects reporting reduction of the pain [2]: 56.7%
- Effects of Propranolol on Pain: Total, % in 1 + 2 [2, 4]: 29.2%
- Effects of Propranolol on Pain: none, % in 1 + 2 [2, 4]: 25.0%
- Effects of Propranolol on Pain: partial, % in 1 + 2 [2, 4]: 45.8%
- Effects of Propranolol on Pain: Total, % in 1 [2, 5]: 35.7%
- Effects of Propranolol on Pain: none, % in 1 [2, 5]: 28.6%
- Effects of Propranolol on Pain: partial, % in 1 [2, 5]: 35.7%
- Effects of Propranolol on Pain: Total, % in 2 [2, 6]: 20.0%
- Effects of Propranolol on Pain: none, % in 2 [2, 6]: 20.0%
- Effects of Propranolol on Pain: partial, % in 2 [2, 6]: 60.0%
- study subjects reporting a total abolition of pain ([2]; for at least 2 to 3 days): 23.3%
- effect of the treatment on pain as a function of keloid grades ([2]; patients with all keloid grades (low, intermediate, high), FIG. 2): reduced
- Effects of Propranolol on Pain: Total, % in none/partial/total [2, 7]: 71.4%
- Effects of Propranolol on Pain: none, % in none/partial/total [2, 7]: 66.7%
- Effects of Propranolol on Pain: partial, % in none/partial/total [2, 7]: 45.5%
- Effects of Propranolol on Pain: Total, % in none/partial/total [2, 8]: 28.6%
- Effects of Propranolol on Pain: none, % in none/partial/total [2, 8]: 33.3%
- Effects of Propranolol on Pain: partial, % in none/partial/total [2, 8]: 54.5%
- Effect of Propranolol on Itching: none, % in 1 + 2 [3, 9]: 20.0%
- Effect of Propranolol on Itching: partial (marked reduction), % in 1 + 2 [3, 9]: 56.7%
- Effect of Propranolol on Itching: total, % in 1 + 2 [3, 9]: 23.3%
- Effect of Propranolol on Itching: none, % in 1 + 2 [3, 10]: Twenty
- Effect of Propranolol on Itching: total, % in 1 + 2 [3, 10]: 23.6%
- Effect of Propranolol on Itching: none, % in 1 [3, 11]: 0.0%
- Effect of Propranolol on Itching: partial, % in 1 [3, 11]: 80.0%
- Effect of Propranolol on Itching: total, % in 1 [3, 11]: 20.0%
- Effect of Propranolol on Itching: none, % in 2 [3, 12]: 30.0%
- Effect of Propranolol on Itching: partial, % in 2 [3, 12]: 45.0%
- Effect of Propranolol on Itching: total, % in 2 [3, 12]: 25.0%
- treated patients confirming that oral administration reduced keloid scar itching ([3]; oral administration, 30 patients): 80%
- effect of the treatment on itching as a function of keloid grades ([3]; patients with all keloid grades (low, intermediate, high), FIG. 1): reduced
- Effect of Propranolol on Itching: none, % in none/partial/total [3, 13]: 0%
- Effect of Propranolol on Itching: partial, % in none/partial/total [3, 13]: 47.1%
- Effect of Propranolol on Itching: total, % in none/partial/total [3, 13]: 28.6%
- Effect of Propranolol on Itching: none, % in none/partial/total [3, 14]: 100%
- Effect of Propranolol on Itching: partial, % in none/partial/total [3, 14]: 52.9%
- Effect of Propranolol on Itching: total, % in none/partial/total [3, 14]: 71.4%
